Measurements as given in patent US20150038707A1, “PROCESS FOR MAKING CGRP RECEPTOR ANTAGONISTS” (Merck Sharp & Dohme Corp., priority 2012, published 2015).

Legend:
[1] = tested on: Ae. aegypti Houston strain (pyrethroid susceptible); assay: Toxicity assay on treated netting (Example 7), Houston strain; format: in vivo
Protocol: (§1) Several compounds were tested to determine their toxic effect on Ae. aegypti mosquitoes. Three mosquito strains were tested—Houston which is pyrethroid susceptible, That which is pyrethroid tolerant and Isla Mujer which is metabolically pyrethroid resistant.
(§2) The toxicity assay involved a single chamber to which treated netting was added. Twenty (20) mosquitoes were transferred to the chamber. After 1 hour, the number of knocked down mosquitoes was recorded and all mosquitoes were transferred to holding cartoons. The mosquitoes were given a 10% sucrose-soaked cotton ball and returned to the insectary. Mortaility was measured after 24 hours. A control assay using acetone-treated netting was used. Six replicates were performed at each treatment concentration.

[2] = tested on: Ae. aegypti Isla mujeres strain (metabolically pyrethroid resistant); assay: Toxicity assay on treated netting (Example 7), Isla mujeres strain; format: in vivo
Protocol: as §1, §2

KDR Resisant An. Gambiae = assay: Bottle toxicity assay (Example 8), knockdown resistant mosquitoes; format: in vivo, Anopheles gambiae; conditions: for KDR Resisant An. Gambiae (% dead (SE)): Strain Tested F123; for effectiveness against knockdown resistant strains: summary of Table 3
Protocol: (§3) Several compounds were tested to determine their toxic effect on knockdown resistant Anopheles gambiae mosquitoes and susceptible mosquitoes. Acetone and different amounts of pesticides were added to 250 ml bottles. In one bottle, only acetone was added as a control. The bottles were rotated in all directions while uncapped until all acetone was evaporated and the insecticide was coated onto the inside surfaces of the bottle. A number of knockdown resistant Anopheles gambiae mosquitoes were added to the bottle. The number of dead mosquitoes was recorded at 1 hour and 24 hours.

Susceptible An. Gambiae = assay: Bottle toxicity assay (Example 8), susceptible mosquitoes; format: in vivo, Anopheles gambiae; conditions: Strain Tested F123
Protocol: as §3

[3] = tested on: Ae. aegypti Thai strain (pyrethroid tolerant); assay: Toxicity assay on treated netting (Example 7), Thai strain; format: in vivo
Protocol: as §1, §2

[4] = tested on: female Aedes aegypti (Thailand strain) mosquitoes; assay: Contact irritancy assay on mosquitoes (Example 2); format: in vivo; conditions: netting treated at 0.0025-2.5 nmol/cm^2
Protocol: (§4) Four compounds of formula (I) were tested for contact irritancy (i.e., movement away from the source after physical contact) at low doses on female Aedes aegypti (Thailand strain) mosquitoes. The contact irritant response was determined by use of the contact irritant assay disclosed by Grieco et al. in “A New Classification System for the Actions of IRS Chemicals Traditionally Used for Malaria Control,” Plos One, Issue 8 (2007) (available at www.plosone.org). The assay used was a cylindrical assembly that included a metal treatment end to which 10 mosquitoes were introduced and a clear receiving chamber. The treatment end included a netting strip (nylon organdy) that was treated with the insecticide of interest at the relevant dose. A butterfly valve separated the treatment end from the remainder of the assembly.
(§5) Each composition was applied to the netting strip at a varied dose via a 1.5 ml acetone solution. Four (4) treatment concentrations were used—0.0025 nmol/cm^2, 0.025 nmol/cm^2, 0.25 nmol/cm^2 and 2.5 nmol/cm^2. Netting was allowed to dry for 15 minutes prior to placement in the cylinder. Control assays were performed with netting treated with acetone only.
(§6) For each run, 10 mosquitoes were transferred into the treatment end of the assembly and, after 30 seconds, the butterfly valve was opened. The valve was closed after 10 minutes and the number of mosquitoes in the clear end (i.e., the number of escaped mosquitoes) was tested.

[5] = tested on: female Aedes aegypti (Thailand strain) mosquitoes; assay: Contact irritancy and spatial repellency screening (Example 4); format: in vivo; conditions: Dosage 25 nmol/cm^2; mapped with 3000 other compounds
Protocol: as §4
(§7) The four compounds of formula I described in Example 2 were tested for spatial repellency (directed movement away from the chemical source without the insect making physical contact with the treated surface) at low doses on female Aedes aegypti (Thailand strain) mosquitoes. The spatial repellency response was determined by use of the spatial repellency assay disclosed by Grieco et al. in “A New Classification System for the Actions of IRS Chemicals Traditionally Used for Malaria Control” in Plos One, Issue 8 (2007) (available at www.plosone.org) which is incorporated herein by reference for all relevant and consistent purposes. The assay used was a cylindrical assembly that included a treatment chamber at one end and a control chamber at the other end. The treatment chamber included a netting strip (nylon organdy) that was treated with the insecticide of interest at the relevant dose. The treatment chamber and control chamber were connected by a clear cylinder and were separated from the clear cylinder by butterfly valves. Twenty (20) mosquitoes were introduced into the clear central chamber and the butterfly valves were opened after 30 seconds. After 10 minutes, the valves were closed and the number of mosquitoes in each chamber was counted.
Dosage was 25 nmol/cm^2. Several known compounds were also mapped for comparison—alphacypermethrin, cypermethrin, propoxur, bendiocarb, permethrin, SS220, DDT, deet and chlorpyrifos.

[6] = tested on: Ae. Aegypti, That strain (pyrethroid tolerant); assay: Contact irritancy on pyrethroid tolerant mosquitoes (Example 5); format: in vivo
Protocol: as §4, §5, §6
(§8) The contact irritancy protocol of Example 2 was used to determine contact irritancy against mosquitoes (Ae. Aegypti) that had acquired metabolic resistance against pyrethroids. Alphacypermethrin and transfluthrin were also tested. Three mosquito strains were tested—Houston which is pyrethroid susceptible, That which is pyrethroid tolerant and Isla Mujer which is metabolically pyrethroid resistant.

[7] = tested on: Ae. Aegypti strains Houston, That and Isla Mujer; assay: Spatial repellency on metabolically resistant mosquitoes (Example 6); format: in vivo
Protocol: as §7
as §8, with “spatial repellency” for “contact irritancy”, “3” for “2”, “DDT” for “Alphacypermethrin”

[8] = Dose 0.25 nm/cm^2, Time 24 hours
[9] = Dose 2.5 nm/cm^2, Time 24 hours
[10] = Dose 0.25 μg/bottle, Time 1 hour
[11] = Dose 0.25 μg/bottle, Time 24 hours
[12] = Dose 2.5 μg/bottle, Time 1 hour
[13] = Dose 2.5 μg/bottle, Time 24 hours
[14] = Dose 0.025 nm/cm^2, Time 1 hour
[15] = Dose 0.025 nm/cm^2, Time 24 hours
[16] = Dose 0.0025 μg/bottle, Time 1 hour
[17] = Dose 0.0025 μg/bottle, Time 24 hours
[18] = Dose 0.025 μg/bottle, Time 1 hour
[19] = Dose 0.025 μg/bottle, Time 24 hours

Structure (SMILES) | Houston (% dead (SE)) ([1]; Dose 0.25 nm/cm^2, Time 1 hour) | Houston (% dead (SE)) [1, 8] | Houston (% dead (SE)) ([1]; Dose 2.5 nm/cm^2, Time 1 hour) | Houston (% dead (SE)) [1, 9] | Isla mujeres (% dead (SE)) ([2]; Dose 0.25 nm/cm^2, Time 1 hour) | Isla mujeres (% dead (SE)) [2, 8] | Isla mujeres (% dead (SE)) ([2]; Dose 2.5 nm/cm^2, Time 1 hour) | Isla mujeres (% dead (SE)) [2, 9] | KDR Resisant An. Gambiae (% dead (SE)) (KDR Resisant An. Gambiae; [10]) | KDR Resisant An. Gambiae (% dead (SE)) (KDR Resisant An. Gambiae; [11]) | KDR Resisant An. Gambiae (% dead (SE)) (KDR Resisant An. Gambiae; [12]) | KDR Resisant An. Gambiae (% dead (SE)) (KDR Resisant An. Gambiae; [13]) | effectiveness against knockdown resistant strains (KDR Resisant An. Gambiae) | Susceptible An. Gambiae (% dead (SE)) (Susceptible An. Gambiae; [10]) | Susceptible An. Gambiae (% dead (SE)) (Susceptible An. Gambiae; [11]) | Susceptible An. Gambiae (% dead (SE)) (Susceptible An. Gambiae; [12]) | Thai (% dead (SE)) ([3]; Dose 0.25 nm/cm^2, Time 1 hour) | Thai (% dead (SE)) [3, 8] | Thai (% dead (SE)) ([3]; Dose 2.5 nm/cm^2, Time 1 hour) | Thai (% dead (SE)) [3, 9] | other results
CC1(C)C(C=C(Cl)Cl)C1C(=O)OCc1cccc(Oc2ccccc2)c1 (stereo not drawn) [Permethrin, permethrin, reference compound] | 100% | 100% | 100% | 100% | 87.49% | 14.68% | 100% | 100% | 0% | 24% | 25% | 78% | less effective | 100% | 100% | 100% |  |  |  |  | Susceptible An. Gambiae (% dead (SE)) (Susceptible An. Gambiae; [13]): 100%
CC1(C)[C@H](C=C(Cl)Cl)[C@H]1C(=O)OCc1c(F)c(F)cc(F)c1F [Transfluthrin, transfluthrin, reference compound] | 100% | 100% | 100% | 100% | 100% | 100% | 100% | 100% |  |  |  |  |  |  |  |  | 100% | 100% | 100% | 100% | Houston (% dead (SE)) [1, 14]: 100%; Houston (% dead (SE)) [1, 15]: 100%; Thai (% dead (SE)) [3, 14]: 100%; Thai (% dead (SE)) [3, 15]: 91.7%; Isla mujeres (% dead (SE)) [2, 14]: 100%; Isla mujeres (% dead (SE)) [2, 15]: 1.6%
CC1(C)C(C=C(Cl)Cl)C1C(=O)OC(C#N)c1cccc(Oc2ccccc2)c1 (stereo not drawn) [Alpha-cypermethrin, alpha cypermethrin, reference compound] | 100% | 100% | 100% | 100% | 96.66% | 41.06% | 100% | 100% |  |  |  |  |  |  |  |  | 100% | 83.9% | 100% | 100% | 
CC(C)c1cccc(COC(=O)C2C(C=C(Cl)C(F)(F)F)C2(C)C)c1F (stereo not drawn) [Compound 1415] |  |  |  |  |  |  |  |  |  |  |  |  |  |  |  |  |  |  |  |  | contact irritancy, dose compared with alphacypermethrin (FIG. 1) [4]: showed contact irritancy at a lower dose than alphacypermethrin; contact irritancy (FIG. 1) ([4]; 10 minutes): showed contact irritancy at relatively low doses; contact irritancy and spatial repellency relative to screened compounds (FIG. 3) [5]: superior contact irritancy and spatial repellency relative to most screened compounds; contact irritancy, tolerant strain (FIG. 4) [6]: contact irritants for tolerant strains; spatial repellency, all strains (FIG. 5) [7]: spatial repellants for all strains
C/C=C/C1C(C(=O)OCc2c(F)c(F)c(COC)c(F)c2F)C1(C)C (stereo in doubt) [Metafluthrin, metafluthrin, reference compound] | 100% | 100% | 100% | 100% | 100% | 77.27% | 100% | 100% | 100% | 100% | 100% | 100% | less effective | 100% | 100% | 100% | 100% | 100% | 100% | 100% | Houston (% dead (SE)) [1, 14]: 100%; Houston (% dead (SE)) [1, 15]: 100%; Thai (% dead (SE)) [3, 14]: 100%; Thai (% dead (SE)) [3, 15]: 89.2%; Isla mujeres (% dead (SE)) [2, 14]: 56.3%; Isla mujeres (% dead (SE)) [2, 15]: 21.89%; KDR Resisant An. Gambiae (% dead (SE)) (KDR Resisant An. Gambiae; [16]): 10%; KDR Resisant An. Gambiae (% dead (SE)) (KDR Resisant An. Gambiae; [17]): 25%; KDR Resisant An. Gambiae (% dead (SE)) (KDR Resisant An. Gambiae; [18]): 47%; KDR Resisant An. Gambiae (% dead (SE)) (KDR Resisant An. Gambiae; [19]): 86%; Susceptible An. Gambiae (% dead (SE)) (Susceptible An. Gambiae; [16]): 100%; Susceptible An. Gambiae (% dead (SE)) (Susceptible An. Gambiae; [17]): 86%; Susceptible An. Gambiae (% dead (SE)) (Susceptible An. Gambiae; [18]): 100%; Susceptible An. Gambiae (% dead (SE)) (Susceptible An. Gambiae; [19]): 100%; Susceptible An. Gambiae (% dead (SE)) (Susceptible An. Gambiae; [13]): 100%
